Data: US20260231913A1, “CANCER MODEL ANIMAL AND METHOD FOR PRODUCING SAME” (ORBIO Corporation, priority 2023, published 2026)
“Also recorded” adds a separate entry of the source.

System: insulinoma cells MIN 6 cultured with L-glucose
Test: Screening of substances that have anticancer effect in mice with intraperitoneally transplanted, L-glucose-cultured insulinoma cells MIN6
Type: in vivo, mouse
Experimental: Not only human cancer cells A549 but also mouse insulinoma cells MIN6 can be successfully cultured with the L-glucose medium. Mouse insulinoma cells MIN6 were cultured with the D-glucose medium. At a stage where the cells proliferated sufficiently, the medium was changed to the L-glucose medium. Subsequently, the medium change was performed frequently over 2 to 3 days. After almost all dead cells were confirmed to be removed, half the amount of the medium was changed every other day. The MIN6 cells were passaged once or twice using the L-glucose medium. After the culture for 8 to 11 days, the MIN 6 cells were trypsinized to form a cell suspension, which was transplanted at 5×10^6 cells (100 μL)/mouse subcutaneously into the right thigh of mice or at 1.0×10^5 cells (20 μL)/mouse into the abdominal cavity of mice without using Matrigel. As a control, MIN6 cells cultured with the normal D-glucose medium were also transplanted into mice. Because of rapid growth in the D-glucose medium, MIN6 cells were cultured with the D-glucose medium for 6 to 7 days and then transplanted at the same density as that of L-glucose-cultured cells subcutaneously into the right thigh of mice.
A method of screening substances that have anticancer effect was examined using, as a test substance, 2-deoxy-2-(2-oxo-2H-chromen-7-yl) amino-L-glucose (hereinafter referred to as “CLG”) (Japanese Patent No. 6566348), which is a molecule having a 7-OH-cuoumarin moiety bonded to L-glucose via a nitrogen atom.
On day 0, insulinoma cells MIN 6 cultured with L-glucose were intraperitoneally transplanted into 32 mice (four groups each including 8 mice). On day 1, the following groups were prepared: • 8 mice that were intraperitoneally administered every day until day 4 (over 4 minimum days) with a saline solution of CLG at a concentration of 53 mg/kg expected to be safe (CLG administration group); • 8 mice that were intraperitoneally administered only with a CLG-free saline every day until day 7 (over 7 days) (saline administration group); and • 8 mice that were intraperitoneally administered every day until day 7 (over 7 days) with 5-FU (which is used as a standard treatment for pancreatic cancer in Japan and the Europe and also used for treatment of neuroendocrine tumors such as insulinoma) at a high concentration of 25 mg/kg acceptable for nude mice (5-FU administration group).
All mice were euthanized at month 5 and subjected to pathological autopsy.

| Compound | pathological finding in individual mice (25 mg/kg intraperitoneally every day, day 1 to day 7, 8 mice) | mice likely to have worsened conditions, dissected on day 10 and each found to have a tumor (25 mg/kg intraperitoneally every day, day 1 to day 7, of 8 mice, day 10) | share of mice with normal blood sugar levels and no tumor (8 mice, 53 mg/kg intraperitoneally, day 1 to day 4, month 5) | overall anticancer effect in vivo (administered only for 4 days) | mice that maintained normal blood sugar levels until the final euthanasia, with no tumor on dissection (of the 8 mice, 53 mg/kg intraperitoneally every day, day 1 to day 4, euthanasia at month 5) | mice with a malignant tumor classifiable as neuroendocrine carcinoma (NEC) in the abdominal cavity (of the 8 mice, pathological examination of whole-body sections) | onset of reduction in blood sugar level compared with the saline administration group (remaining 4 of the 8 mice) | necrosis of the intraperitoneal tumor (the one mouse with a malignant tumor) |
| --- | --- | --- | --- | --- | --- | --- | --- | --- |
| O=c1[nH]cc(F)c(=O)[nH]1 [5-FU, reference compound] | large, highly-atypical, significant liver metastasis with high malignancy; also recorded: invasive cancer in the smooth muscle around the transverse colon | 3 mice |  |  |  |  |  |  |
| 2-deoxy-2-(2-oxo-2H-chromen-7-yl) amino-L-glucose [CLG] |  |  | 50% | significant effect in vivo | 4 mice | one | one week later | at least 90% |
